We go through 18 compounds from patent US10336746B1, “RAD51 inhibitors” (Cyteir Therapeutics, Inc., priority 2017, dated 2019).

One may read the EC50 as the midpoint of the concentration-response curve.

Experiment [1] concerns Daudi cell line (AID positive). The experiment in a line: Primary screening cell killing assay, Daudi cell line (AID positive). In kind it is cell-based. The following applies: Homo sapiens, 168 h, cell death on Day 7, Cell-Titer Glo. On the procedure:
(§1) Primary screening was a phenotypic screen that utilized the synthetic lethal interaction between AID and RAD51 to identify compounds that were both potent and on target. AID expressing cells are dependent upon RAD51 for survival; inhibiting RAD51 in AID positive cells results in a cytotoxic effect.
The first step was to set up a cell killing assay in the Daudi cell line (AID positive). A 96 well u-bottom plate was prepared by writing the experiment number, plate number, date and initials in the top right corner of the plate lid. With a sterile 300 ml reservoir, and 25 ml serological pipette, evaporation buffer media was pipetted into reservoir in 25 ml increments. Using the liquid handler, 150 ul of evaporation buffer media was pipetted from reservoir into rows A and H, and Columns 1 and 12 of the 96 well u-bottom plate. Cell cultures were counted to obtain the density of cells per ml, and the culture viability. The cell density information was used to obtain 1,000,000 cells from culture using a 5 mL serological pipette into an epi tube. The cell density information from the culture was used to calculate the number of cells and volume of media needed for the assay to seed 1250 cells in 130 ul of media per available culture well in the 96 well u-bottom plate. Rows B through F were used for cells (50 wells in total), with row G left for an empty media control. The calculation was overestimated by 10 mL to account for the dead volume in the 300 ml reservoir. Once the media volume was calculated, the appropriate volume of media was pipetted in 25 mL increments into the 250 mL bottle using a 25 mL serological pipette. The 250 ml bottle was capped tightly, and placed into a 37° C. water bath for 2 minutes. While the culture media was warming, 10 mL of fresh media was pipetted from the 500 mL culture media bottle into a sterile 25 mL reservoir. Using the Eppendorf multichannel pipette, 130 ul of media was pipetted from the 25 mL reservoir into row G of the 96 well u-bottom plate. Once the 250 mL bottle of media was warmed, the volume of culture needed was pipetted into the bottle, and mixed gently with a 25 mL serological pipette as to not create bubbles, and then the contents of the bottle were pipetted into a new 300 mL reservoir. Using the liquid handler, 130 ul of culture was pipetted from the 300 mL reservoir into rows B through F of the 96 well u-bottom plate. Once the culture was added, the plate was placed into a 37° C. incubator until the compound master plate was prepared for use.
Two 96 well u-bottom plates were prepared by writing the master plate name in the upper right corner of the plate lid. Labeling one DMSO master and the other Media Master. The compounds of interest were obtained from the laboratory freezer, and placed into a 25 well storage box with a lid, and set the box aside. The compounds were vortexed after thawing but before use. Using an automatic multichannel pipette, 20 ul of 100% DMSO was pipetted into wells B3-B11 through G3-G11 of the DMSO master plate. For each compound on the master plate, 50 ul of the compound were pipetted in the appropriate well of row 2 (reference plate map to determine appropriate well). A serial dilution was prepared beginning by aspirating 20 ul from row 2 and mixing with row 3, repeating until row 11 was reached. Using the liquid handler, 194 ul of Daudi media was dispensed into wells B2-B11 through G2-G11 of the Media master plate. Using the liquid handler, 6 ul from the DMSO master plate was aspirated and dispensed into the media master plate, mixing 100 ul twice.
Compounds from master plate were then added to the culture plate. The culture plates were removed from the incubator, and set inside the biosafety cabinet. Using a liquid handler, 20 ul from wells B2 to B11 through G2 to G11 of master plate were aspirated, and dispensed into wells B2 to B11 through G2 to G11 of culture plate. This set was continued with each culture plate. […]

The subject of experiment [2] is WI-38 cells (AID negative). Kind of experiment: Primary screening cell killing assay repeated in WI-38 cells (AID negative). It is filed as cell-based. The following applies: Homo sapiens, 168 h, cell death on Day 7, Cell-Titer Glo. On the procedure:
as §1
Percent cell death and EC50 values were calculated by comparing the cell viability of the compound treated wells to the non-treated wells. Normalized RLU values were obtained by subtracting the media well values from each of the wells in the same column, and then dividing that value by the DMSO treated cells values. The percent kill was then calculated by subtracting the normalized RLU value from 1 and multiplying by 100. The average normalized percent kill value and standard error of the mean was then calculated. The kill values were then inputted into Prism with the corresponding standard errors. In Prism a non-linear regression line was plotted with the data points using a semi-log scale, and the EC50 value was calculated.

Some results are limits rather than exact numbers.

Regarding `CC(C)OC(=O)NC1CCC(c2ncc(-c3ccc(NC(=O)O[C@H](C)c4ccccc4)cc3S(=O)(=O)NC(C)(C)C)s2)CC1` (stereo partly drawn) [Ex. 43, (R)-1-phenylethyl (3-(N-(tert-butyl)sulfamoyl)-4-(2-((1r,4R)-4-((isopropoxycarbonyl)amino)cyclohexyl)thiazol-5-yl)phenyl)carbamate], the figures for the EC50 in experiment [1] and in experiment [2] were 100 to 1000 nM and more than 1000 nM, respectively.

As for `CC(C)OC(=O)N[C@H]1CC[C@H](c2ncc(-c3ccc(NC(=O)N[C@@H](C)c4ccccn4)cc3S(=O)(=O)NC(C)(C)C)s2)CC1` [Ex. 32, isopropyl ((1S,4r)-4-(5-(2-(N-(tert-butyl)sulfamoyl)-4-(3-((S)-1-(pyridin-2-yl)ethyl)ureido)phenyl)thiazol-2-yl)cyclohexyl)carbamate], the figures for the EC50 in experiment [1] and in experiment [2] were not above 100 nM and more than 1000 nM, respectively.

Consider `CC(C)OC(=O)N[C@H]1CC[C@H](c2ncc(-c3ccc(NC(=O)OCc4ccccn4)cc3S(=O)(=O)NC(C)(C)C)s2)CC1` [Ex. 72, trans-2-pyridylmethyl N-[3-(tert-butylsulfamoyl)-4-[2-[4-(isopropoxycarbonylamino)cyclohexyl]thiazol-5-yl]phenyl]carbamate], for which the results for the EC50 in experiment [1] and in experiment [2] were not above 100 nM and more than 1000 nM, respectively.

With `CC(C)OC(=O)N[C@H]1CC[C@H](c2ncc(-c3ccc(NC(=O)NCc4ccc(O)cc4)cc3S(=O)(=O)NC(C)(C)C)s2)CC1` [Ex. 73, trans-isopropyl N-[4-[5-[2-(tert-butylsulfamoyl)-4-[(4-hydroxyphenyl)methylcarbamoylamino]phenyl]thiazol-2-yl]cyclohexyl]carbamate], the EC50 was not above 100 nM in experiment [1] and more than 1000 nM in experiment [2].

Turning to `CC(C)OC(=O)NC1CCC(c2ncc(-c3ccc(NC(=O)OCc4ccccc4)cc3S(=O)(=O)NC(C)(C)C)s2)CC1` (stereo not drawn) [Ex. 39, benzyl (3-(N-(tert-butyl)sulfamoyl)-4-(2-((1r,4r)-4-((isopropoxycarbonyl)amino)cyclohexyl)thiazol-5-yl)phenyl)carbamate], the results for the EC50 in experiment [1] and in experiment [2] were not above 100 nM and more than 1000 nM, respectively.

As to `CC(C)OC(=O)NC1CCC(c2ncc(-c3ccc(NC(=O)OCc4ccccn4)cc3S(=O)(=O)NC(C)(C)C)s2)CC1` (stereo not drawn) [Ex. 42, pyridin-2-ylmethyl (3-(N-(tert-butyl)sulfamoyl)-4-(2-((1r,4r)-4-((isopropoxycarbonyl)amino)cyclohexyl)thiazol-5-yl)phenyl)carbamate], the EC50 is not above 100 nM in experiment [1] and more than 1000 nM in experiment [2].

As for `CC(C)(C)NS(=O)(=O)c1cc(NC(=O)OC2COC2)ccc1-c1cnc([C@H]2CC[C@H](NC(=O)OC3COC3)CC2)s1` [Ex. 49, trans-oxetan-3-yl N-[3-(tert-butylsulfamoyl)-4-[2-[4-(oxetan-3-yloxycarbonylamino)cyclohexyl]thiazol-5-yl]phenyl]carbamate], the EC50 in experiment [1] was 100 to 1000 nM; in experiment [2] it was more than 1000 nM.

Take `CC(C)OC(=O)N[C@H]1CC[C@H](c2ncc(-c3ccc(NC(=O)O[C@@H](C)c4ccccc4)cc3S(=O)(=O)NC(C)(C)C)s2)CC1` [Ex. 71, trans-[(1S)-1-phenylethyl] N-[3-(tert-butylsulfamoyl)-4-[2-[4-(isopropoxycarbonylamino)cyclohexyl]thiazol-5-yl]phenyl]carbamate]: the half-maximal effective concentration (EC50) in experiment [1] is not above 100 nM; in experiment [2] it was more than 1000 nM.

With `CC(C)OC(=O)Nc1ccc(-c2cnc(C3CC(NC(=O)OC(C)C)C3)s2)c(S(=O)(=O)NC(C)(C)C)c1` (stereo not drawn) [Ex. 65, isopropyl N-[3-(tert-butylsulfamoyl)-4-[2-[3-(isopropoxycarbonylamino)cyclobutyl]thiazol-5-yl]phenyl]carbamate], the EC50 in experiment [1] was 100 to 1000 nM; in experiment [2] it was more than 1000 nM.

Regarding `CC(C)OC(=O)Nc1ccc(-c2cnc(N3CC(NC(=O)OC(C)C)C3)s2)c(S(=O)(=O)NC(C)(C)C)c1` [Ex. 46, isopropyl N-[3-(tert-butylsulfamoyl)-4-[2-[3-(isopropoxycarbonylamino)azetidin-1-yl]thiazol-5-yl]phenyl]carbamate], the EC50 in experiment [1] and in experiment [2] was more than 1000 nM each time.

Regarding `CC(C)NC(=O)OC1CCN(c2ncc(-c3ccc(NC(=O)NCc4ccccc4)cc3S(=O)(=O)NC(C)(C)C)s2)CC1` [Ex. 3, [1-[5-[4-(benzylcarbamoylamino)-2-(tert-butylsulfamoyl)phenyl]thiazol-2-yl]-4-piperidyl] N-isopropylcarbamate], the EC50 in experiment [1] was not above 100 nM; in experiment [2], more than 1000 nM.

Take `CC(C)OC(=O)NC12CCC(c3ncc(-c4ccc(NC(=O)N[C@H](C)c5ccccn5)cc4S(=O)(=O)NC(C)(C)C)s3)(CC1)CC2` [Ex. 16, isopropyl (R)-(4-(5-(2-(N-(tert-butyl)sulfamoyl)-4-(3-(1-(pyridin-2-yl)ethyl)ureido)phenyl)thiazol-2-yl)bicyclo[2.2.2]octan-1-yl)carbamate]: the EC50 is not above 100 nM in experiment [1] and more than 1000 nM in experiment [2].

With `CC(C)OC(=O)NC1CCC(c2ncc(-c3ccc(NC(=O)O[C@@H](C)c4ccccc4)cc3S(=O)(=O)NC(C)(C)C)s2)CC1` (stereo partly drawn) [Ex. 41, (S)-1-phenylethyl (3-(N-(tert-butyl)sulfamoyl)-4-(2-((1r,4S)-4-((isopropoxycarbonyl)amino)cyclohexyl)thiazol-5-yl)phenyl)carbamate], the EC50 was not above 100 nM in experiment [1] and more than 1000 nM in experiment [2].

As for `C[C@@H](NC(=O)Nc1ccc(-c2cnc(C3CCC(NC(=O)OC4COC4)CC3)s2)c(S(=O)(=O)NC(C)(C)C)c1)c1ccccc1F` (stereo partly drawn) [Ex. 54, oxetan-3-yl ((1R,4r)-4-(5-(2-(N-(tert-butyl)sulfamoyl)-4-(3-((R)-1-(2-fluorophenyl)ethyl)ureido)phenyl)thiazol-2-yl)cyclohexyl)carbamate], the figures for the EC50 in experiment [1] and in experiment [2] were not above 100 nM and more than 1000 nM, respectively.

As for `CC(C)OC(=O)NC12CCC(c3ncc(-c4ccc(NC(=O)N[C@H](C)c5ccccc5)cc4S(=O)(=O)NC(C)(C)C)s3)(CC1)CC2` [Ex. 14, isopropyl (R)-(4-(5-(2-(N-(tert-butyl)sulfamoyl)-4-(3-(1-phenylethyl)ureido)phenyl)thiazol-2-yl)bicyclo[2.2.2]octan-1-yl)carbamate], the results for the EC50 in experiment [1] and in experiment [2] were not above 100 nM and more than 1000 nM, respectively.

Regarding `CC(C)NC(=O)OC12CCC(c3ncc(-c4ccc(NC(=O)NCc5ccccn5)cc4S(=O)(=O)NC(C)(C)C)s3)(CC1)CC2` [Ex. 62, 4-(5-(2-(N-(tert-butyl)sulfamoyl)-4-(3-(pyridin-2-ylmethyl)ureido)phenyl)thiazol-2-yl)bicyclo[2.2.2]octan-1-yl isopropylcarbamate], the EC50 in experiment [1] and in experiment [2] was more than 1000 nM in each case.

In the case of `CC(C)OC(=O)N[C@H]1CC[C@H](c2ncc(-c3ccc(NC(=O)N[C@H](C)c4ccccc4)cc3S(=O)(=O)NC(C)(C)C)s2)CC1` [Ex. 24], the EC50 is not above 100 nM in experiment [1] and more than 1000 nM in experiment [2].

Consider `CC(C)OC(=O)NC12CCC(c3ncc(-c4ccc(NC(=O)N[C@@H](C)c5ccccn5)cc4S(=O)(=O)NC(C)(C)C)s3)(CC1)CC2` [Ex. 15, isopropyl (S)-(4-(5-(2-(N-(tert-butyl)sulfamoyl)-4-(3-(1-(pyridin-2-yl)ethyl)ureido)phenyl)thiazol-2-yl)bicyclo[2.2.2]octan-1-yl)carbamate], for which the EC50 in experiment [1] was not above 100 nM; in experiment [2], more than 1000 nM.
